{
  "source": "patent EP4112046A1",
  "about": "“PHARMACEUTICAL COMPOSITION AND USE THEREOF” (Alphala Co., Ltd., priority 2021, dated 2023)",
  "assay": "Solubility in buffers or solutions, LC-MS/MS",
  "type": "physicochemical",
  "settings": "3 mg/mL, 37°C, 24 hrs",
  "description": "The test formulation was added into indicated buffers or solutions (ddH2O or 0.9% saline, pH 7.4) to the final concentration of 3 mg/mL, followed by sonicating for 30 mins. Next, the mixture was put into 37°C water bath for 24 hrs. The mixture was mixed well by vortex and 1 mL of mixture was transferred into the 1.5 mL eppendorf tube, followed by centrifuging at 20817 xg for 30 mins. 10 µL of the supernatant was collected, and the concentration of the collected supernatant was determined by LC-MS/MS.",
  "data": [
    {"compound": "CCOC(=O)CCNC(=O)c1ccc(N[C@H](c2ccc(-c3nnc(-c4ccccc4)o3)cc2)C(C)C)cc1", "note": "[ALP001E]", "values": [
      {"measurement": "Solubility (mg/ml)", "setting": "H2O (pH7.0)", "value": "< LOQ"},
      {"measurement": "Solubility (mg/ml)", "setting": "Saline (pH7.4)", "value": "< LOQ"}
    ]}
  ]
}
